Data taken from ChEMBL document CHEMBL1201862, “PubChem BioAssay data set” (2004).
The source made the active and inactive calls. Rule as the data show it, for most assays here: actives have a measured EC50 and inactives only a lower limit.

Key:
[1] = biological target: T1, Heat shock factor protein 1 (Mus musculus, UniProt P38532); test: decrease of HSF1-responsive luciferase luminescence – cell-based, NIH3T3, dose retest, confirmation (AID 2382); type: functional;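 also: NIH3T3 fibroblasts with HSF1-driven luciferase reporter stressed by proteasome inhibitor MG132; luminescence from HSF1-driven luciferase expression after 8 hours of MG132 stress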
T1 sequence (P38532 whole entry): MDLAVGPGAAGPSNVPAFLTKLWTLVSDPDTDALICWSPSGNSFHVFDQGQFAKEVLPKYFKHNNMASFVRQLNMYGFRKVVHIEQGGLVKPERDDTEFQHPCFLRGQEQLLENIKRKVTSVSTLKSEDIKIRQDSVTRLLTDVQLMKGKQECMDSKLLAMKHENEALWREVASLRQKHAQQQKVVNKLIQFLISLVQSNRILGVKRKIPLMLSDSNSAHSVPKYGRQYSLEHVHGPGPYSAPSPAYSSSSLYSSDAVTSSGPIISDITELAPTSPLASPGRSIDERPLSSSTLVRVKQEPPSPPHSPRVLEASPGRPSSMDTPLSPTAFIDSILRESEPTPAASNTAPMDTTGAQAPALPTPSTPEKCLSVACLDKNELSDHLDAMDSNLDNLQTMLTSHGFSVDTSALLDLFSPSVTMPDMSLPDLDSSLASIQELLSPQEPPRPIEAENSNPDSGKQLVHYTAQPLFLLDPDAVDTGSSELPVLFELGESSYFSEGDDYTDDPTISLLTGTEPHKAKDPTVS

Cytochrome P450 2C9 = Cytochrome P450 2C9 (Homo sapiens, UniProt P11712)
[2] = luciferase reporter signal suppression in cells – H4 neuroglioma cells, luminescence, dose response (AID 1990); type: functional, cell-based
[3] = Luminescence Cell-Based Dose Response HTS to Identify Inhibitors of 5'UTR Stem-Loop Driven Prion Protein mRNA Translation in H4 Neuroglioblastoma Cells. [Related pubchem assays: 1827 (Project Summary), 1813 (Primary HTS)]; type: functional
[4] = alpha-synuclein stem-loop luciferase translation blockers – H4 neuroglioma cells, luminescence, confirmation (AID 1988); type: functional, cell-based
INS1 = test: INS-1E survival protection against cytokine death – cell-based, luminescence, retest, dose response (AID 449756); type: functional; settings: Rattus norvegicus;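 also: cell death triggered by IL-1 beta plus TNF-alpha plus IFN-gamma mixture; protective hits raise ATP signal compared with cytokine alone wells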
[5] = Trypanosoma cruzi growth suppression in host cells – NIH3T3 host cells, beta-gal luminescence, confirmation (AID 2044); type: functional, cell-based;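 also: intracellular parasites grown in NIH/3T3 mouse fibroblasts as host cells; luminescent beta-galactosidase reporter signal from transgenic T. cruzi replicating inside host cells; inhibitors lower the luminescence signal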
[6] = NIH3T3 cell viability loss – ATP luminescence, mouse fibroblasts, counter-screen, dose response (AID 2010); type: functional, cell-based;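 also: cells exposed to compound for about 90 hours before reading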
Cytochrome P450 3A4 = Cytochrome P450 3A4 (Homo sapiens, UniProt P08684);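 also: CYP3A4 tested as one member of a cytochrome P450 panel screen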
[7] = Luminescence Cell-Based Dose Retest to Confirm Inhibitors of Cancer Stem Cells. [Related pubchem assays (depositor defined):AID2717, AID2721]; type: functional; settings: Homo sapiens
Streptococcus = test: GAS UMAA2166 growth inhibition – luminescence, BacTiterGlo, counter-screen for streptokinase expression inhibitor project, dose response (AID 1915); type: functional, organism-based;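 also: potency for reduction of bacterial viability or growth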
[8] = test system: Streptococcus sp. 'group A'; test: Streptococcus pyogenes SK(-)GAS viability under kanamycin – luminescence, BacTiterGlo, confirmation, counter-screen for streptokinase expression inhibitor project, dose response (AID 1900); type: functional, organism-based

Chain of Cytochrome P450 3A4 (P08684 whole entry): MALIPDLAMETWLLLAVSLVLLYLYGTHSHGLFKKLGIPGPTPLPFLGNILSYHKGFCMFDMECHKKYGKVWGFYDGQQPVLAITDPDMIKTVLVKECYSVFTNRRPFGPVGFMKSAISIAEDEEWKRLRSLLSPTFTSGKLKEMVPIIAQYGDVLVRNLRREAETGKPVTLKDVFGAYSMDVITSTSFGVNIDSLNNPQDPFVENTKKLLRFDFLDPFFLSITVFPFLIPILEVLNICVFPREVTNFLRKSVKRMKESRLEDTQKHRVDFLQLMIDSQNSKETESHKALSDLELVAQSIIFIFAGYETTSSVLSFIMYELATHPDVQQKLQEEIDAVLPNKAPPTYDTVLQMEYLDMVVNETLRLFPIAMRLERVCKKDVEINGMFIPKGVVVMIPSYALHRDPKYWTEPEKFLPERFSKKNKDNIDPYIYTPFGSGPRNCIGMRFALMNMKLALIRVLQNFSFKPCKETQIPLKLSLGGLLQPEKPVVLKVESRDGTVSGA
Chain of Cytochrome P450 2C9 (P11712 whole entry): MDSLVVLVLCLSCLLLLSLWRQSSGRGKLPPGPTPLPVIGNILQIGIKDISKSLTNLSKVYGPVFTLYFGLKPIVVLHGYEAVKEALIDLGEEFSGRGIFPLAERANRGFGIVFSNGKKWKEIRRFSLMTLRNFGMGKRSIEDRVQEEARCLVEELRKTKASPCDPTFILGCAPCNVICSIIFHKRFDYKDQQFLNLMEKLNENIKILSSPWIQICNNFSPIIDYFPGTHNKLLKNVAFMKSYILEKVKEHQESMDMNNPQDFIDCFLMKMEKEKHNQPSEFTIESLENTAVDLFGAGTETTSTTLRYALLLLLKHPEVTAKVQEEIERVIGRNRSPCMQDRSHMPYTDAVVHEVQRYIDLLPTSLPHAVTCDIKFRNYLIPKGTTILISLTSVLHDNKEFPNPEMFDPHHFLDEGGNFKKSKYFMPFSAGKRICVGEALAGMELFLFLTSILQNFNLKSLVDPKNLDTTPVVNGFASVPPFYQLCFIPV

SMILES: COc1ccc(N(CC(=O)NC2CCCCCCC2)S(=O)(=O)c2c(C)nn(C)c2C)cc1
- EC50 [1]: > 195 µM (not active)

SMILES: C=C(C)COc1ccc2c(c1)CCC1C2CC[C@]2(C)C(=O)/C(=N/O)CC12 (some centres undefined)
- AC50 (Cytochrome P450 2C9): 3.16 µM (inconclusive)

SMILES: CC(C)c1nc(N2CCOCC2)c(C#N)c2c1COC(C)(C)C2
- EC50 [2]: 33.6 µM (active)
- EC50 [3]: > 120 µM (not active)
- EC50 [4]: > 120 µM (not active)

SMILES: CCOc1ccc(-n2nc3ccc(NC(=O)c4ccc5c(c4)OCCO5)cc3n2)cc1
- EC50 [2]: > 120 µM (not active)
- EC50 [3]: 72.6 µM (active)
- EC50 [4]: 12.7 µM (active)

SMILES: O=C(CSc1nc2ccccc2n1S(=O)(=O)c1ccccc1)N1CCCCC1
- EC50 [1]: > 195 µM (not active)

SMILES: O=C(N1CCCCC1)N1CCN(S(=O)(=O)c2ccccc2)CC1
- EC50 [1]: 32.8 µM (active)

SMILES: CC(=O)NC(=S)Nc1cccc(S(=O)(=O)NC2=NCCC2)c1
- EC50 [1]: > 195 µM (not active)

SMILES: Cc1cc(C)c2nc(C(F)(F)F)c(C#N)c(N)c2c1
- EC50 [1]: 3.15 µM (active)

SMILES: O=C(c1nn2c(C(F)(F)F)cc(-c3ccco3)nc2c1Br)N1CCCc2ccccc21
- EC50 [2]: 8.31 µM (active)
- EC50 [3]: 13.8 µM (active)
- EC50 [4]: 10.2 µM (active)

SMILES: COc1ccc(OC)c(NC(=O)CSc2nnc(-c3cccnc3)s2)c1
- AC50 (INS1): 3.66 µM (active)

SMILES: CCOC(=O)Cc1csc(NC(=O)c2c(O)c3ccccc3n(CC(C)C)c2=O)n1
- EC50 [2]: > 120 µM (not active)
- EC50 [3]: > 120 µM (not active)
- EC50 [4]: 11.1 µM (active)

SMILES: O=C(NCCS(=O)(=O)N1CCN(c2ccc(F)cc2)CC1)c1ccc(Br)o1
- EC50 [2]: > 120 µM (not active)
- EC50 [3]: > 120 µM (not active)
- EC50 [4]: > 120 µM (not active)

SMILES: COc1cccc2s/c(=N/C(=O)CS(=O)(=O)c3ccc(F)cc3)n(C)c12
- EC50 [5]: 1.2 µM (active)
- EC50 [6]: > 60 µM (not active)

SMILES: Cn1ccnc1C1CCCCN1C(=O)c1cc(COc2ccc(F)cc2Cl)on1 (centres undefined)
- EC50 [1]: > 195 µM (not active)

SMILES: CC(C)C(NC(=O)C12CC3CC(CC(C3)C1)C2)C(=O)N/N=C/C1=C(N2CCOCC2)C(=C\c2cccc([N+](=O)[O-])c2)/CC1 (centres undefined)
- EC50 [5]: 2.16 µM (active)
- EC50 [6]: > 60 µM (not active)

SMILES: O=C1C2CCCN2C(c2ccc(F)cc2)N1c1nccs1 (centres undefined)
- AC50 (Cytochrome P450 3A4): 22.4 µM (inconclusive)
- AC50 (Cytochrome P450 2C9): 35.5 µM (inconclusive)

SMILES: Cc1ccc(NCc2ccc(C)s2)cc1
- EC50 [5]: 2.13 µM (active)
- EC50 [6]: > 60 µM (not active)

SMILES: COc1cccc(-c2cc(NCCc3c[nH]c4ccc(OC)cc34)ncn2)c1
- AC50 (Cytochrome P450 2C9): 1.58 µM (inconclusive)

SMILES: Cc1ccc(C)c(NC(=O)c2ccccc2NS(=O)(=O)c2cc([N+](=O)[O-])ccc2C)c1
- AC50 (INS1): 3.76 µM (active)
- AC50 [7]: 1.19 µM (active)

SMILES: Cc1cccc(Nc2c([N+](=O)[O-])cc(C(=O)N3CC(=O)Nc4ccccc43)cc2[N+](=O)[O-])c1
- EC50 [5]: 0.518 µM (active)
- EC50 [6]: > 60 µM (not active)

SMILES: CCOCC(=O)Nc1cc(C(=O)Nc2cccc(C)c2C)ccc1Cl
- AC50 (Cytochrome P450 3A4): 25.1 µM (inconclusive)

SMILES: O=C(CC12CC3CC(CC(C3)C1)C2)NC(=S)Nc1ccc(CN2CCOCC2)cc1
- EC50 [5]: 1.51 µM (active)
- EC50 [6]: 9.26 µM (active)

SMILES: COc1ccc([C@@H]2[C@@H]3C(=O)N(C(C)(C)C)C(=O)[C@@H]3[C@]3(C)C(=O)N(c4cccc(F)c4)C(=O)N23)cc1
- EC50 [2]: > 120 µM (not active)
- EC50 [3]: > 120 µM (not active)
- EC50 [4]: > 120 µM (not active)

SMILES: Cc1noc(C)c1C(=O)N1CCC(C(=O)c2ccccc2)CC1
- EC50 [1]: > 195 µM (not active)

SMILES: CCOc1ccc(-c2cc(CCCC(=O)N3CCN(c4ccc(OC)cc4)CC3)no2)cc1
- EC50 [2]: > 120 µM (not active)
- EC50 [3]: > 120 µM (not active)
- EC50 [4]: 28.1 µM (active)

SMILES: O=C(CCNC(=O)c1ccccc1Cl)Nc1nc(-c2ccc3ccccc3c2)cs1
- EC50 [5]: 2.02 µM (active)
- EC50 [6]: > 60 µM (not active)

SMILES: Cc1ccc(Cl)cc1N=C(S)N(Cc1cccnc1)Cc1ccccc1Cl
- EC50 [5]: 0.554 µM (active)
- EC50 [6]: > 60 µM (not active)

SMILES: CCCCn1c(C2CCCCC2)nc2cc3nc(O)c(C(C)C)nc3cc21
- AC50 [7]: 1.23 µM (active)

SMILES: Cc1cc(C)n(-c2ccc(NC(=O)C3CCCCN3C(=O)c3ccoc3C)cc2)n1 (centres undefined)
- EC50 [1]: > 195 µM (not active)

SMILES: Nc1nnc(SCCOc2cccc(Br)c2)s1
- AC50 (Cytochrome P450 2C9): 15.8 µM (inconclusive)

SMILES: CCC(C)(C)n1nnnc1C(c1cc2ccc(OC)cc2nc1O)N1CCc2ccccc2C1 (centres undefined)
- EC50 [5]: 1.91 µM (active)
- EC50 [6]: 4.98 µM (active)

SMILES: CC/C(NNc1ccccc1)=C1/C(=O)NC(=O)N(c2ccccc2)C1=O
- AC50 [7]: 0.828 µM (active)

SMILES: O=C(c1ccccc1)c1cc(F)c(N2CCOCC2)cc1Cl
- AC50 (Cytochrome P450 3A4): 17.8 µM (inconclusive)

SMILES: c1ccc(Cn2c[n+](Cc3ccccc3)cn2)cc1
- EC50 [1]: > 195 µM (not active)

SMILES: Cc1ccc(-n2nc(C)c3c(C)c(CCC(=O)NCC4CCCO4)c(=O)n(C)c32)cc1 (centres undefined)
- EC50 [5]: 5.19 µM (active)
- EC50 [6]: > 60 µM (not active)

SMILES: CN(Cc1ccccc1)CC(O)COc1ccc(CNCCc2ccncc2)cc1 (centres undefined)
- EC50 [5]: 0.9 µM (active)
- EC50 [6]: > 60 µM (not active)

SMILES: CC(=O)c1cccc(/N=c2\scc(-c3ccc(S(=O)(=O)N4CCOCC4)cc3)n2CCO)c1
- AC50 (INS1): 2.5 µM (active)

SMILES: O=C(Nc1cccnc1Cl)c1cc([N+](=O)[O-])ccc1Cl
- EC50 [5]: > 60 µM (not active)
- EC50 [6]: > 60 µM (not active)

SMILES: Cn1c(NCc2cccnc2)nc2c1c(=O)n(Cc1ccccc1F)c(=O)n2C
- EC50 [2]: 18.5 µM (active)
- EC50 [3]: > 120 µM (not active)
- EC50 [4]: > 120 µM (not active)

SMILES: COCCCN=C(S)NN=C(S)Nc1cccc(Cl)c1
- EC50 (Streptococcus): > 150 µM (not active)
- EC50 [8]: > 150 µM (not active)

SMILES: CCn1c(C)c(C)c2cc(C(=O)N3CCN(c4cccc(C)c4C)CC3)ccc21
- AC50 [7]: 4.18 µM (active)

SMILES: COc1cc(CNCCN2CCOCC2)ccc1OCc1ccccc1Cl
- AC50 (Cytochrome P450 2C9): 7.94 µM (inconclusive)

SMILES: Cn1c(-c2ccsc2)c(-c2cccs2)c2cc(Br)ccc21
- AC50 [7]: 3.15 µM (active)

SMILES: CN1CCN(NC(=O)c2ccc(S(=O)(=O)N3CCCCCC3)cc2)CC1
- EC50 [5]: 0.247 µM (active)
- EC50 [6]: > 60 µM (not active)

SMILES: CS(=O)(=O)n1nc(-c2cccnc2)nc1NCc1ccccc1
- EC50 [2]: > 120 µM (not active)
- EC50 [3]: > 120 µM (not active)
- EC50 [4]: > 120 µM (not active)

SMILES: C/C(=N/Cc1cccc(Cl)c1)c1nc(-c2ccco2)oc1O
- AC50 [7]: 1.08 µM (active)

SMILES: COC(=O)N/N=C/c1ccc(/C=N/NC(=O)OC)cc1
- EC50 [1]: > 195 µM (not active)

SMILES: CCCn1c2c(c(O)c(C(=O)NCc3ccccc3)c1=O)CCCC2
- AC50 (Cytochrome P450 2C9): 20 µM (inconclusive)

SMILES: Clc1ccccc1N1CCN(Cc2c[nH]c3ccccc23)CC1
- EC50 [5]: 1.43 µM (active)
- EC50 [6]: > 60 µM (not active)

SMILES: CC/C(NNc1ccccc1)=C1/C(=O)NC(=O)N(c2ccc(OC)cc2)C1=O
- AC50 [7]: 0.769 µM (active)

SMILES: COc1ccc2nc(NC(=O)c3cccc(-c4cc5ccccc5oc4=O)c3)sc2c1
- AC50 [7]: 6.73 µM (active)

SMILES: CN(C)Cc1ccccc1-c1ccc2ncnc(N(C)Cc3ccco3)c2c1
- AC50 (Cytochrome P450 3A4): 15.8 µM (inconclusive)

SMILES: N#Cc1c(N2CCOCC2)nc(-c2ccco2)c2c1CCCC2
- EC50 [2]: 21.5 µM (active)
- EC50 [3]: 18.5 µM (active)
- EC50 [4]: > 120 µM (not active)
